The structures appear in SMILES notation. Where two headings read alike, the source gives them in different places.

One series addresses rat PI3Kγ (Rattus norvegicus, UniProt D3ZFJ0). Briefly: PI3K γ assay: CXCL1/CINC-1-stimulated CD11b expression on rat whole blood neutrophils (FACS). The format is cell-based. To be noted: mean ± SEM, n = 3. The protocol:
PI3K γ assay: whole blood from male Sprague Dawley rat was collected in heparin coated tubes and pre-treated (1 hr., 37 °C, 5% CO2) with vehicle DMSO or PI3K inhibitors followed by stimulation with Rat CXCL1/CINC-1 (515-CN-050, R&D) at 500 ng/mL (EC80 determined in house; 1 hr., RT). Next, cells were stained with Fc block (550,273, BD bioscience, 1:100; 20 mins, RT), CD45R-B220-PeCy7 (HIS24) (25–0460-82, eBioscience, 1:100), CD43-PE (W3/13) (202,812, Biolegend, 1:100), HIS48-FITC (11–0570-82, eBioscience, 1:100), CD11b-APC (562,102, BD Bioscience, 1:100). Cells were lysed and fixed with BD FACS lysing solution (349,202, BD Biosciences; 45 mins, RT) before FACS acquisition (BD LSRFortessa™). Data were analysed using FlowJo 9.9 software (TreeStar). FACS gating strategy: lymphocytes (FSC-A vs SSC-A), doublets exclusion (FSC-W vs FSC-H), neutrophil identification B220-, HIS48hi, CD43hi, SSC-Ahi, geom. MFI for CD11b on neutrophils. IC50 values were determined in Graph Pad through a nonlinear fit on log transform data: log inhibitor vs response, variable slope, 4 parameters. Fraction unbound in diluted whole blood is calculated using the following equation: fu^′=DF·fub/1+DF-1·fub where fu’ is the fraction unbound in diluted whole blood; fub is the fraction unbound in undiluted whole blood; DF is the dilution factor. Fraction unbound in 100% whole blood (fub) is calculated as fup/BP, where fup is the experimentally determined fraction unbound in undiluted plasma and BP is the experimentally determined blood to plasma partition ratio of drug Table 1.

In a further series the target is T1, rat PI3Kδ (Rattus norvegicus, UniProt A0A8I5Y949).
T1 sequence (A0A8I5Y949 1-1047): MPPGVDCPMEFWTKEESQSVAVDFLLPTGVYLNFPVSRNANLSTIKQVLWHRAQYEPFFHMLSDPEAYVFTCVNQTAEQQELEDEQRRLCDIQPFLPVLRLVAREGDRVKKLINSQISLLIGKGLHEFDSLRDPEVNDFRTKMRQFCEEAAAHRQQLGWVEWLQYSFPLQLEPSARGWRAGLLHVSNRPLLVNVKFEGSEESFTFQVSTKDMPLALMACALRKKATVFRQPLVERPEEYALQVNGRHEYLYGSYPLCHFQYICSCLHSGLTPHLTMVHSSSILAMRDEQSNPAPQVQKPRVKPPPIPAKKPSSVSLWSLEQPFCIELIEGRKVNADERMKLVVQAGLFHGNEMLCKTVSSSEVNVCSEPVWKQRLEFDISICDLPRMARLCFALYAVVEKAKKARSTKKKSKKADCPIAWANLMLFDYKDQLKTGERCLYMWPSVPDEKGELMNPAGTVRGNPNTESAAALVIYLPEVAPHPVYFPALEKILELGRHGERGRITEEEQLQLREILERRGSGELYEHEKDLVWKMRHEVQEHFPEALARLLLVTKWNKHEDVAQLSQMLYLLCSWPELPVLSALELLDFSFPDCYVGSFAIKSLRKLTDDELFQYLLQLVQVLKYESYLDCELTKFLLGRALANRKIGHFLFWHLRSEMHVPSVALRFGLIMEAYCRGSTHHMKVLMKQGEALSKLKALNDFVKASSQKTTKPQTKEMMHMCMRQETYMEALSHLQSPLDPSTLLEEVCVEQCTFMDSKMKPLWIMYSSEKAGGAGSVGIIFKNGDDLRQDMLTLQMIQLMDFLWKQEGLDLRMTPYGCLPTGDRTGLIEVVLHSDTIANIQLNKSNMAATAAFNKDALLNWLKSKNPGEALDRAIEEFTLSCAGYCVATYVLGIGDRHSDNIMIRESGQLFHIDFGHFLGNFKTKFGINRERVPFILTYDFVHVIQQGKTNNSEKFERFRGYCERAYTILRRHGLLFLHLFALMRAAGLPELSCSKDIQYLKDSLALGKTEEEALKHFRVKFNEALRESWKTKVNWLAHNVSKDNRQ
Briefly: PI3K δ assay: anti-IgM-stimulated CD86 expression on rat splenic B cells (FACS). The series is classed as cell-based. The note with it: mean ± SEM, n = 3. The protocol:
(§1) PI3K δ assay: single cell suspension was obtained from the spleen of male Sprague Dawley rat; cells were cultured in RPMI containing heat-inactivated 10% FBS, pre-treated (1 hr., 37 °C, 5% CO2) with vehicle DMSO or PI3K inhibitors, followed by stimulation with AffiniPure F(ab’)2 Fragment Goat Anti-Rat IgM, μ chain specific, Jackson Immunoresearch (112–006-075) at 5 μg/mL (EC80 determined in house; 20–22 hrs). Then, cells were washed with FACS buffer (2% FBS, […]) and stained (15 mins, 4 °C) with Fc block (1:100, 550,273, BD bioscience), LIVE/DEAD Fixable Aqua Dead Cell Stain Kit (L34957, Invitrogen, 1:300), CD45R (B220)-PeCy7 (HIS24) (25–0460-82, eBioscience, 1:100), CD3-AF647 (IF4) (201,408, Biolegend, 1:100), CD86-FITC (24F) (200,305, Biolegend, 1:50). Cells were acquired on the Flow Cytometer (BD LSRFortessa™) and analysed using FlowJo 9.9 software (TreeStar). FACS gating strategy: lymphocytes (FSC-A vs SSC-A), doublets exclusion (FSC-W vs FSC-H), live cells (Aqua-530-), B cell identification CD3- B220 + % of positive B cells for CD86. IC50 values were determined in Graph Pad through a nonlinear fit on log transform data: log inhibitor vs response, variable slope, 4 parameters. Fraction unbound in in vitro assay is calculated using the following equation: fu^′=DF·fup/1+DF-1·fup where fu’ is the fraction unbound in assay media; fup is the experimentally determined fraction unbound in undiluted human plasma; DF is the dilution factor (fold difference between protein concentration in human plasma and assay media, using an albumin concentration of 600 μM (40 g/L) for undiluted plasma) Table 2.

A short description of series [1]: Human plasma protein binding and unbound fraction in assay media. The series is classed as in vitro ADME. The protocol: as §1

rat PI3Kγ, sequence (D3ZFJ0 1-1102): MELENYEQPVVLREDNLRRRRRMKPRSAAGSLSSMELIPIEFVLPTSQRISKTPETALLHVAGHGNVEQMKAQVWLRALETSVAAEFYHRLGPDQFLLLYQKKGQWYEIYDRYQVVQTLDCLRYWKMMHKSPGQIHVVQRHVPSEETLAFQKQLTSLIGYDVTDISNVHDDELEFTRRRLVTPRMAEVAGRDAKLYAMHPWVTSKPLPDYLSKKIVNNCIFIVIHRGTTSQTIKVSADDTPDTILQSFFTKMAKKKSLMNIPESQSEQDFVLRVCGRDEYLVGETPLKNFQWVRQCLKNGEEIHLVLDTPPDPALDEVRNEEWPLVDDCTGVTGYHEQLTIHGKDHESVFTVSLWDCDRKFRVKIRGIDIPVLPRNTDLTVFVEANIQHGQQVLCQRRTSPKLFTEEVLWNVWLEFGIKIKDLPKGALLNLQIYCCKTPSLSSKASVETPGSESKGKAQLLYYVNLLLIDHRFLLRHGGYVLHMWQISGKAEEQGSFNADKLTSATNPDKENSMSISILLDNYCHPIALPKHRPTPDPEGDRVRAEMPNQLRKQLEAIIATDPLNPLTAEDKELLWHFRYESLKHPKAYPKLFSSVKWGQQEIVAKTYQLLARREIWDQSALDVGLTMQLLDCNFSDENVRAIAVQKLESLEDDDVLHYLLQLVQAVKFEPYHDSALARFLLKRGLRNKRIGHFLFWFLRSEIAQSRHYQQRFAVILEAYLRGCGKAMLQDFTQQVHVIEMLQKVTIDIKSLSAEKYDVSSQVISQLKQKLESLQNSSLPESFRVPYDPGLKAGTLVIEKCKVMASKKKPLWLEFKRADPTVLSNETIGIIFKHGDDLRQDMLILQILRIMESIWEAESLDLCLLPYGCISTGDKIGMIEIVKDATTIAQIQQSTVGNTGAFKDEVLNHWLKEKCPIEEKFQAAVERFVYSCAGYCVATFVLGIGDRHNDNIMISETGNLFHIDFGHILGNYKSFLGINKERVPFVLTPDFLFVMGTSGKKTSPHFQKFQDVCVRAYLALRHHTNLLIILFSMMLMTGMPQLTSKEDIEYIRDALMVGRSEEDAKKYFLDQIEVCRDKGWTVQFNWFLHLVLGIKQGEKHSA

Consider `Cc1nc(Nc2cccc(N3CCCC3=O)n2)sc1-c1cc2c(c(S(C)(=O)=O)c1)C(=O)N([C@@H](C)C1CC1)C2` [AZD8154], for which the IC50 came out at 28.7 ± 4.1 nM at rat PI3Kγ (CD11b expression on neutrophils, read-out: rat γ total IC50); 0.54 ± 0.08 nM on rat PI3Kγ (corrected for protein binding in the assay, read-out: rat γ free IC50); 10.5 ± 6.2 nM at rat PI3Kδ (CD86 expression on B cells, read-out: rat δ total IC50); 0.63 ± 0.37 nM at rat PI3Kδ (corrected for protein binding in the assay, read-out: rat δ free IC50). In addition, the fraction unbound was determined as 0.0063 in series [1] (human plasma, fraction unbound, read-out: Human ppb (fu, %)) and 0.06 in series [1] (human, assay media (PI3K δ assay), fraction unbound in assay media (δ assay, RPMI 10% FBS), read-out: Fu’).

The IC50 is the concentration that inhibits the measured activity by half.

Values taken from paper PMC11040934, “PI3Kγδ inhibition suppresses key disease features in a rat model of asthma” (Respiratory Research, 2024).
